Experimental data: the SangsterLogP compilation
Blank lines part the entries; values can stand above or below the compound they belong to.

Assays:
[1] = method code SF, from Yoshimoto, M. (1982). Quantitative structure-activity relationships and structure patterns of drugs. SankyoÌ„ KenkyuÌ„jo nenpoÌ„ (Annual report of Sankyo Research Laboratories), 34, 1-38.
[2] = method code SF-AS, from PMID: 10944786; details: pH 7.0
[3] = method code SF-AS, from DOI: 10.1002/jps.2600710122
[4] = method code SF-AS, from DOI: 10.1007/s001289900158, PMID: 8661463
[5] = method code SF, from DOI: 10.1016/s0968-0896(00)00025-0, PMID: 10882003
[6] = method code SF-AS, from DOI: 10.1021/jm00253a014, PMID: 4151967; details: pH 7.4
[7] = method code SF-AS, from DOI: 10.1002/chin.199416148, PMID: 8117185
[8] = method code SF-AS, from DOI: 10.1016/j.ejmech.2011.02.056, PMID: 21420207
[9] = not given; remark: listed apart in the source
[10] = method code SF-AS, from DOI: 10.1021/jm00291a017, PMID: 5140011
[11] = not given; remark: listed apart in the source
[12] = method code SF-HPLC, from DOI: 10.1016/0045-6535(86)90532-1; details: pH 6.5
[13] = not given; remark: listed apart in the source
[14] = not given; remark: listed apart in the source
[15] = not given; remark: listed apart in the source
[16] = method code SF-NMR, from DOI: 10.1002/jps.2600751016, PMID: 3795031
[17] = method code SF-HPLC, from PMID: 2780588
[18] = method code SF-HPLC, from PMID: 9554875; details: pH 6.8
[19] = method code SF-HPLC, from DOI: 10.1007/s00216-006-0868-5, PMID: 17082876

SMILES: CCCOC(=O)NCCCN(C)C
logP: 2.43

SMILES: COC1(NC(=O)CSc2[nH]cnc3ncnc2-3)C(=O)N2C(C(=O)O)=C(COC(N)=O)CSC21 (stereo unspecified)
logP [1]: -1.99

SMILES: O=C(Nc1n[nH]c(NC(=O)c2ccc([N+](=O)[O-])cc2)n1)c1ccc([N+](=O)[O-])cc1
logP [3]: 0.55

SMILES: NNc1nc(NN)nc(N2CCOCC2)n1
logP [4]: 0.62

SMILES: O=C(Nc1n[nH]c(NC(=O)C(F)(F)F)n1)C(F)(F)F
logP [3]: 0.62

SMILES: O=c1cccc(Cl)[nH]1
logD ([5]; pH 7.4): 0.78

SMILES: Clc1ccnc(Cl)n1
logP [4]: 1.16

SMILES: CCn1c(C)c(COC(N)=O)c2c1C(=O)C(C)=C(OC)C2=O
logD [6]: 1.81

SMILES: CNC(=O)O/N=C/C(C)(C)SC
logP: 1.19

SMILES: O=C(CCN1CCCCC1)CN1C(=O)C2CC=CCC2C1=O (stereo unspecified)
logP [7]: 1.44

SMILES: COP(=O)(NC(C)=O)SC (stereo unspecified)
logP: -0.46

SMILES: CCSc1ccc2c(c1)N(CCCN1CCN(C)CC1)c1ccccc1S2
logP [9]: 4.82

SMILES: CCOC(=O)c1cc(C#N)c(=O)[nH]c1C(F)(F)F
logP [5]: 2.08

SMILES: CN1CCN(CCCN2c3ccccc3Sc3ccc(Cl)cc32)CC1
logP [9]: 4.79

SMILES: S=C1CCCCCCCN1
logP [10]: 1.44

SMILES: CCNC(=S)NCC
logD [12]: 0.57

SMILES: CC(C(=O)CCN(C)C)N1C(=O)C2CC=CCC2C1=O (stereo unspecified)
logP [7]: 0.77

SMILES: O=C(CCN1CCCCC1)CN1C(=O)CC(c2ccc(Cl)cc2)C1=O (stereo unspecified)
logP [7]: 2.23

SMILES: COC(N)=O
logP [15]: -0.64

SMILES: CC1=C(N)C(=O)c2c(COC(N)=O)c3n(c2C1=O)CCC3O (stereo unspecified)
logD [6]: 0.64

SMILES: CN(C)C(N)=S
logD [12]: -0.43

SMILES: OCCCCCC(F)(F)F
logP [16]: 1.64

SMILES: S=C1CCCCCN1
logP [10]: 0.75

SMILES: OCCO
logP [15]: -1.21

SMILES: CCN(CC)c1nc(Cl)nc(Cl)n1
logP [4]: 2.17

SMILES: COc1ccc2c(c1)COP(=O)(OCC1C=CC(n3cc(C)c(=O)[nH]c3=O)O1)O2 (stereo unspecified)
logD [18]: 0.36

SMILES: Cc1cccc2c1OP(=O)(OCC1C=CC(n3cc(C)c(=O)[nH]c3=O)O1)OC2 (stereo unspecified)
logD [18]: 0.71

SMILES: CN(C)C(=S)N(C)C
logD [12]: 0.49

SMILES: COc1cc(CNC(=O)CCCC/C=C/C(C)C)ccc1O
logP [17]: 3.04

SMILES: CCCOc1ccccc1NC(=O)OCN1CCCCC1
logD [2]: 2.33

SMILES: O=C1C(Cl)=C(Cl)C(=O)C(Cl)=C1Cl
logP [19]: 2.19

SMILES: Cc1cc(C)c2c(c1)COP(=O)(OCC1C=CC(n3cc(C)c(=O)[nH]c3=O)O1)O2 (stereo unspecified)
logD [18]: 1.18

SMILES: C=Cc1ccccc1C=C
logP [19]: 3.49

SMILES: c1ccc2cc3cc4c(ccc5ccccc54)cc3cc2c1
logP [14]: 6.81

SMILES: COC1(NC(=O)CSc2nnc(C)s2)C(=O)N2C(C(=O)O)=C(COC(N)=O)CSC21 (stereo unspecified)
logP [1]: -2.16

SMILES: CC(NCCC(c1ccccc1)c1ccccc1)c1ccccc1 (stereo unspecified)
logP [9]: 4.89

SMILES: Cc1cccc2c1ccc1ccccc12
logP [14]: 5.08

SMILES: Cc1cn(C2C=CC(COP3(=O)OCc4ccccc4O3)O2)c(=O)[nH]c1=O (stereo unspecified)
logD [18]: 0.28

SMILES: CCN(CC)c1nc(NN)nc(NN)n1
logP [4]: 1.22

SMILES: S=C1CCCCCCN1
logP [10]: 1

SMILES: OCCCCC(F)(F)F
logP [16]: 1.15

SMILES: CC(C(=O)CCN1CCCCC1)N1C(=O)C2CC=CCC2C1=O (stereo unspecified)
logP [7]: 1.55

SMILES: OCCN1CCN(CCCN2c3ccccc3Sc3ccc(Cl)cc32)CC1
logP [9]: 4.25

SMILES: CC(CCO)CC(F)(F)F (stereo unspecified)
logP [16]: 1.61

SMILES: O=C(CCN1CCCCC1)CN1C(=O)c2ccccc2C1=O
logP [7]: 0.86

SMILES: CC(O)CC(F)(F)F (stereo unspecified)
logP [16]: 0.71

SMILES: CCCCCCCCC(=O)NCc1ccc(O)c(OC)c1
logP [17]: 2.96

SMILES: Cc1cccc2sc3nncn3c12
logP: 2.07

SMILES: COC1=C(C)C(=O)c2c(c(COC(N)=O)c3n2CCC3)C1=O
logD [6]: 1.71

SMILES: c1ccc2cc3cc4ccccc4cc3cc2c1
logP [14]: 5.76

SMILES: OCCCCCCO
logP [15]: -0.02

SMILES: Cc1cccc(=O)[nH]1
logP [5]: -0.04

SMILES: O=c1cccc[nH]1
logP [5]: -0.56

SMILES: CCNC(N)=S
logD [12]: -0.21

SMILES: CCC(=O)Nc1n[nH]c(NC(=O)CC)n1
logP [3]: -0.07

SMILES: S=C1CCCCN1
logP [10]: 0.13

SMILES: Cc1ccc(S(=O)(=O)Cl)cc1
logP [19]: 3.25

SMILES: Cc1nc(NC(=O)C(C)(C)C)sc1-c1cc(C(=O)NCc2ccccc2)n(Cc2ccccc2)n1
logP [13]: 4.82

SMILES: O=C(Nc1ccccc1)C(=O)Nc1ccccc1
logP [19]: 2

SMILES: Cc1ccc2c(c1)COP(=O)(OCC1C=CC(n3cc(C)c(=O)[nH]c3=O)O1)O2 (stereo unspecified)
logD [18]: 0.73

SMILES: CCCCC(N)=O
logP [15]: 0.37

Continued, values first:

logD [2]: 2.42
SMILES: CCCOc1ccc(NC(=O)OCN2CCCCC2)cc1

logD [6]: 1.64
SMILES: CCn1c(C)c(COC(=O)NCCO)c2c1C(=O)C(C)=C(OC)C2=O

logP [8]: 2.31
SMILES: CCCCCCCCCCCCCCCCCCCC(=O)N[C@H]1C[C@H](O[C@H]2C[C@](O)(C(=O)CO)Cc3c(O)c4c(c(O)c32)C(=O)c2c(OC)cccc2C4=O)O[C@@H](C)[C@H]1O

logP [11]: 6.28
SMILES: CCCCCCCCCCCCCCCC(=O)OCC(COC(=O)C(C)c1ccc2cc(OC)ccc2c1)OC(=O)CCCCCCCCCCCCCCC (stereo unspecified)

logP [1]: -1.57
SMILES: CCCCSCC(=O)NC1(OC)C(=O)N2C(C(=O)O)=C(COC(N)=O)CSC21 (stereo unspecified)

logP [13]: 4.55
SMILES: C=CCn1nc(-c2sc(NC(=O)C(C)(C)C)nc2C)cc1C(=O)Nc1ccc(OC)cc1

logP [14]: 5.24
SMILES: Cc1ccc2c(ccc3ccccc32)c1

logD [6]: 1.54
SMILES: COC1=C(C)C(=O)c2c(c(COC(N)=O)c3n2CCC3OC(C)=O)C1=O (stereo unspecified)

logP [8]: 1.94
SMILES: CCCCCCCCCCCCCC(=O)N[C@H]1C[C@H](O[C@H]2C[C@](O)(C(=O)CO)Cc3c(O)c4c(c(O)c32)C(=O)c2c(OC)cccc2C4=O)O[C@@H](C)[C@H]1O

logP [13]: 5.17
SMILES: COc1ccc(NC(=O)c2cc(-c3sc(NC(=O)C(C)(C)C)nc3C)n(-c3ccc(Br)cc3)n2)cc1

logP [11]: 6.39
SMILES: CCCCCCCC/C=C\CCCCCCCC(=O)OCC(COC(=O)C(C)c1ccc2cc(OC)ccc2c1)OC(=O)CCCCCCC/C=C\CCCCCCCC (stereo unspecified)

logP [17]: 3.74
SMILES: CCCCCCCCCCCNC(=O)Cc1ccc(O)c(OC)c1

logP [3]: 0.79
SMILES: CCCC(=O)Nc1n[nH]c(NC(=O)CCC)n1

logP [11]: 4.84
SMILES: CCCC(=O)OCC(COC(=O)C(C)c1ccc2cc(OC)ccc2c1)OC(=O)CCC (stereo unspecified)

logP [1]: -1.31
SMILES: CCCCCSCC(=O)NC1(OC)C(=O)N2C(C(=O)O)=C(COC(N)=O)CSC21 (stereo unspecified)

logP [13]: 5.33
SMILES: COc1ccc(NC(=O)c2cc(-c3sc(NC(=O)C(C)(C)C)nc3C)nn2Cc2ccc(Cl)cc2OC)cc1

logP [11]: 5.68
SMILES: CCCCCC(=O)OCC(CCOC(=O)c1ccc2cc(OC)ccc2c1)OC(=O)CCCCC (stereo unspecified)

logP [1]: -1.76
SMILES: CCCSCC(=O)NC1(OC)C(=O)N2C(C(=O)O)=C(COC(N)=O)CSC21 (stereo unspecified)

logP [13]: 4.1
SMILES: COc1cc(Cl)ccc1Cn1nc(-c2sc(NC(=O)C(C)(C)C)nc2C)cc1C(=O)N1CCOCC1

logP [9]: 4.4
SMILES: COc1ccc2c(c1)N(CC(C)CN(C)C)c1ccccc1S2 (stereo unspecified)

logP [14]: 5.85
SMILES: CCc1ccc2cc3ccccc3cc2c1

logP [17]: 1.67
SMILES: CCCCCNC(=O)Cc1ccc(O)c(OC)c1

logD [2]: 2.6
SMILES: CCCOc1cccc(NC(=O)OCN2CCCCC2)c1

logP [17]: 3.31
SMILES: CCCCCCCCC(=O)NCc1cccc(OC)c1

logD [2]: 2.39
SMILES: CCCCOc1ccccc1NC(=O)OCN1CCCCC1

logP [11]: 6.08
SMILES: CCCCCCCCCCCC(=O)OCC(COC(=O)C(C)c1ccc2cc(OC)ccc2c1)OC(=O)CCCCCCCCCCC (stereo unspecified)

logP [8]: 1.92
SMILES: CCCCCCCCCC(=O)N[C@H]1C[C@H](O[C@H]2C[C@](O)(C(=O)CO)Cc3c(O)c4c(c(O)c32)C(=O)c2c(OC)cccc2C4=O)O[C@@H](C)[C@H]1O

logP [8]: 2.17
SMILES: CCCCCCCCCCCCCCCCCC(=O)N[C@H]1C[C@H](O[C@H]2C[C@](O)(C(=O)CO)Cc3c(O)c4c(c(O)c32)C(=O)c2c(OC)cccc2C4=O)O[C@@H](C)[C@H]1O

logD [2]: 3.04
SMILES: CCCCOc1ccc(NC(=O)OCN2CCCCC2)cc1

logP [8]: 2
SMILES: CCSCCCCCCCCCCCC(=O)NC1CC(OC2CC(O)(C(=O)CO)Cc3c(O)c4c(c(O)c32)C(=O)c2c(OC)cccc2C4=O)OC(C)C1O (stereo unspecified)
